System: ÜBERGEWICHTIGEN FRAUEN
Test: Three-year placebo-controlled prophylaxis study: incidence of diabetes mellitus in overweight persons with impaired oral glucose tolerance
Format: in vivo, Patienten
Conditions: for DIABETES MELLITUS (ERKRANKUNGSRATE AN DIABETES MELLITUS): number of cases (WHO definition), 2 X 3 mg tgl.
Excerpt: Es wurden 122 übergewichtigte Personen ausgesucht, die im Mittel 25 % Übergewicht und eine gestörte orale Glukosetoleranz hatten. Diese Patienten gaben nach Aufklärung ihr Einverständnis an dieser Studie über 3 Jahre teilzunehmen. Sie hatten bereits 5 bis 10 Versuche einer Gewichtsabnahme hinter sich, die alle erfolglos verlaufen waren. Ein Diabetes mellitus war nach der Definition des World Health Organization-Reports (Techn. Rep. Ser. 646, 1-80, 1980), bei diesen Patieten ausgeschlossen. Sie wurden in zwei gleich starke Gruppen eingeteilt, so daß nach Alter, Ausmaß der Störung des Glucose-Toleranz-Tests (OGTT) und Größe und Dauer des Übergewichts kein Unterschied bestand. Die Patienten wurden in halbjährlichen Abständen ambulant kontrolliert. Wie zu Beginn, wurden bei diesen Kontrollen folgende Blutwerte gemessen: Blutsenkung, Blutbild, Nüchternblutzucker, OGTT, Gewicht, Cholesterin und Triglyzeride, Serum Glutamat-Oxalat-Transaminase (SGOT), Serum Glutamat-Pyruvat Transaminase (SGPT). Damit wurden den Stoffwechesl beeinträchtigende Krankheiten ausgeschlossen.
Sie erste Gruppe erhielt 2 x 3 mg Captopril täglich, die zweite entsprechend Placebo. Die Patienten hatten die Auflage, keine den Stoffwech l beeinträchtigende Medikamente, z.B. Diuretika, β-Blocker ode dergleichen einzunehmen. In beiden Gruppen schieden über den Zeitraum von 3 Jahren 28 Patienten aus verschiede nen Gründen aus. Die Gruppen veränderten sich dadurch jedoch nicht so, daß sie statistisch nicht mehr auswertbar waren.

## C[C@H](CS)C(=O)N1CCC[C@H]1C(=O)O [Captopril, 1-[(2S)-3-Mercapto-2-methylpropionyl]-L-prolin]
Nach 3 Jahren, versus placebo, 2 x 3 mg täglich, p < 0,001 (Student's t-Test)
  Erkrankungsrate an Diabetes mellitus: geringere Erkrankungsrate an Diabetes mellitus
ZEITRAUM 1985 -1 (start), 63 in group
  DIABETES MELLITUS (ERKRANKUNGSRATE AN DIABETES MELLITUS): 0
ZEITRAUM 1986 - 2, 60 in group
  DIABETES MELLITUS (ERKRANKUNGSRATE AN DIABETES MELLITUS): 2
ZEITRAUM 1987 - 2, 54 in group
  DIABETES MELLITUS (ERKRANKUNGSRATE AN DIABETES MELLITUS): 4
ZEITRAUM 1988 - 1, 48 in group, placebo 11 of 46, p< 0,001
  DIABETES MELLITUS (ERKRANKUNGSRATE AN DIABETES MELLITUS): 4
Risk groups (strongly overweight, older than 50 years; risk about 45 % over two years), 2 x 3 mg pro Tag
  Verminderung dieses Risikos (an Diabetes mellitus zu erkranken): > 50%

— patent publication EP0331014A2, “Use of ACE inhibitors in diabetes prophylaxis” (THERA - Patent Verwaltungs-GmbH, priority 1988, dated 1989)
